One block for each compound: values may come before it.
Columns and labels:
[1] = test system: Methicillin Resistant Staphylococcus aureus strain USA 200; experiment: Minimum inhibitory concentration (MIC), CLSI broth micro-dilution, S. aureus; assay type: cell-based; settings: Staphylococcus aureus, MRSA / USA200; Table 6; MRSA USA 200; cation adjusted Mueller Hinton Broth + 0.002% Tween-80; 35° C., 22 hours
Outline: (§1)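 Antibacterial potency is measured as MIC by the CLSI broth dilution method. Bacteria at OD600 0.0005 in Tween-80-supplemented cation-adjusted Mueller Hinton broth face ten twofold compound dilutions for 22 h at 35° C.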

[2] = test system: Escherichia coli ATCC 25922; experiment: Minimum inhibitory concentration (MIC), CLSI broth micro-dilution, E. coli; assay type: cell-based; settings: Escherichia coli, ATCC25922, 22 h, Table 6, cation adjusted Mueller Hinton Broth + 0.002% Tween-80, 35° C.
Outline: as §1

MIC [1]: 0.031 µM
MIC [2]: 0.19 µM
SMILES: Cc1nc(-c2ccc(C(C)(C)C)cc2)nc(Cl)c1C(=O)N[C@@H](CCN)C(=O)N(C)[C@@H]1C(=O)N[C@@H](C)C(=O)N[C@H](C(=O)NCC#N)Cc2ccc(OCCN)c(c2)-c2cc1ccc2OCCN (racemic) [Compound 421, rac-(8S,11S,14S)-3,18-bis(2-aminoethoxy)-N-(cyanomethyl)-11-methyl-14-[methyl-[rac-(2S)-4-amino-2-[[2-(4-tert-butylphenyl)-4-chloro-6-methyl-pyrimidine-5-carbonyl]amino]butanoyl]amino]-10,13-dioxo-9,12-diazatricyclo[13.3.1.12,6]icosa-1(18),2(20),3,5,15(19),16-hexaene-8-carboxamide]

MIC [1]: 0.031 µM
MIC [2]: 0.38 µM
SMILES: COc1nc(-c2ccc(C(C)(C)C)cc2)nc(C)c1C(=O)N[C@@H](CCN)C(=O)N(C)[C@@H]1C(=O)N[C@@H](C)C(=O)N[C@H](C(=O)NCC#N)Cc2ccc(OCCN)c(c2)-c2cc1ccc2OCCN (racemic) [Compound 422, rac-(8S,11S,14S)-3,18-bis(2-aminoethoxy)-N-(cyanomethyl)-11-methyl-14-[methyl-[rac-(2S)-4-amino-2-[[2-(4-tert-butylphenyl)-4-methoxy-6-methyl-pyrimidine-5-carbonyl]amino]butanoyl]amino]-10,13-dioxo-9,12-diazatricyclo[13.3.1.12,6]icosa-1(18),2(20),3,5,15(19),16-hexaene-8-carboxamide]

MIC [1]: 0.13 µM
MIC [2]: 2 µM
SMILES: Cc1nc(-c2ccc(C(C)(C)C)cc2)nc(O)c1C(=O)N[C@@H](CCN)C(=O)N(C)[C@@H]1C(=O)N[C@@H](C)C(=O)N[C@H](C(=O)NCC#N)Cc2ccc(OCCN)c(c2)-c2cc1ccc2OCCN (racemic) [Compound 423, rac-(8S,11S,14S)-3,18-bis(2-aminoethoxy)-N-(cyanomethyl)-11-methyl-14-[methyl-[rac-(2S)-4-amino-2-[[2-(4-tert-butylphenyl)-4-hydroxy-6-methyl-pyrimidine-5-carbonyl]amino]butanoyl]amino]-10,13-dioxo-9,12-diazatricyclo[13.3.1.12,6]icosa-1(18),2(20),3,5,15(19),16-hexaene-8-carboxamide]

MIC [1]: 0.023 µM
MIC [2]: 0.19 µM
SMILES: Cc1nc(-c2ccc(C(C)(C)C)cc2)nc(N(C)C)c1C(=O)N[C@@H](CCN)C(=O)N(C)[C@@H]1C(=O)N[C@@H](C)C(=O)N[C@H](C(=O)NCC#N)Cc2ccc(OCCN)c(c2)-c2cc1ccc2OCCN (racemic) [Compound 424, rac-(8S,11S,14S)-3,18-bis(2-aminoethoxy)-N-(cyanomethyl)-11-methyl-14-[methyl-[rac-(2S)-4-amino-2-[[2-(4-tert-butylphenyl)-4-(dimethylamino)-6-methyl-pyrimidine-5-carbonyl]amino]butanoyl]amino]-10,13-dioxo-9,12-diazatricyclo[13.3.1.12,6]icosa-1(18),2(20),3,5,15(19),16-hexaene-8-carboxamide]

MIC [1]: 0.016 µM
MIC [2]: 0.19 µM
SMILES: CNc1nc(-c2ccc(C(C)(C)C)cc2)nc(C)c1C(=O)N[C@@H](CCN)C(=O)N(C)[C@@H]1C(=O)N[C@@H](C)C(=O)N[C@H](C(=O)NCC#N)Cc2ccc(OCCN)c(c2)-c2cc1ccc2OCCN (racemic) [Compound 425, rac-(8S,11S,14S)-3,18-bis(2-aminoethoxy)-N-(cyanomethyl)-11-methyl-14-[methyl-[rac-(2S)-4-amino-2-[[2-(4-tert-butylphenyl)-4-methyl-6-(methylamino)pyrimidine-5-carbonyl]amino]butanoyl]amino]-10,13-dioxo-9,12-diazatricyclo[13.3.1.12,6]icosa-1(18),2(20),3,5,15(19),16-hexaene-8-carboxamide]

MIC [1]: 0.023 µM
MIC [2]: 0.12 µM
SMILES: Cc1nc(-c2ccc(C(C)(C)C)cc2)nc(N)c1C(=O)N[C@@H](CCN)C(=O)N(C)[C@@H]1C(=O)N[C@@H](C)C(=O)N[C@H](C(=O)NCC#N)Cc2ccc(OCCN)c(c2)-c2cc1ccc2OCCN (racemic) [Compound 426, rac-(8S,11S,14S)-3,18-bis(2-aminoethoxy)-N-(cyanomethyl)-11-methyl-14-[methyl-[rac-(2S)-4-amino-2-[[4-amino-2-(4-tert-butylphenyl)-6-methyl-pyrimidine-5-carbonyl]amino]butanoyl]amino]-10,13-dioxo-9,12-diazatricyclo[13.3.1.12,6]icosa-1(18),2(20),3,5,15(19),16-hexaene-8-carboxamide]

MIC [1]: 0.023 µM
MIC [2]: 1 µM
SMILES: C[C@@H]1NC(=O)[C@@H](N(C)C(=O)[C@H](CCN)NC(=O)c2c(N)nc(-c3ccc(C(C)(C)C)cc3)nc2N)c2ccc(OCCN)c(c2)-c2cc(ccc2OCCN)C[C@@H](C(=O)NCC#N)NC1=O (racemic) [Compound 429, rac-(8S,11S,14S)-3,18-bis(2-aminoethoxy)-N-(cyanomethyl)-11-methyl-14-[methyl-[rac-(2S)-4-amino-2-[[4,6-diamino-2-(4-tert-butylphenyl)pyrimidine-5-carbonyl]amino]butanoyl]amino]-10,13-dioxo-9,12-diazatricyclo[13.3.1.12,6]icosa-1(18),2(20),3,5,15(19),16-hexaene-8-carboxamide]

Second part, the compound before the results:

SMILES: Cc1cc(-c2ccc(C(C)(C)C)cc2)nc(N)c1C(=O)N[C@@H](CCN)C(=O)N(C)[C@@H]1C(=O)N[C@@H](C)C(=O)N[C@H](C(=O)NCC#N)Cc2ccc(OCCN)c(c2)-c2cc1ccc2OCCN (racemic) [Compound 414, rac-(8S,11S,14S)-3,18-bis(2-aminoethoxy)-N-(cyanomethyl)-11-methyl-14-[methyl-[rac-(2S)-4-amino-2-[[2-amino-6-(4-tert-butylphenyl)-4-methyl-pyridine-3-carbonyl]amino]butanoyl]amino]-10,13-dioxo-9,12-diazatricyclo[13.3.1.12,6]icosa-1(18),2(20),3,5,15(19),16-hexaene-8-carboxamide]
MIC [1]: 0.016 µM
MIC [2]: 0.25 µM

SMILES: C[C@@H]1NC(=O)[C@@H](N(C)C(=O)[C@H](CCN)NC(=O)c2cc(N)c(-c3ccc(C(C)(C)C)cc3)nc2N)c2ccc(OCCN)c(c2)-c2cc(ccc2OCCN)C[C@@H](C(=O)NCC#N)NC1=O (racemic) [Compound 416, rac-(8S,11S,14S)-3,18-bis(2-aminoethoxy)-N-(cyanomethyl)-11-methyl-14-[methyl-[rac-(2S)-4-amino-2-[[2,5-diamino-6-(4-tert-butylphenyl)pyridine-3-carbonyl]amino]butanoyl]amino]-10,13-dioxo-9,12-diazatricyclo[13.3.1.12,6]icosa-1(18),2(20),3,5,15(19),16-hexaene-8-carboxamide]
MIC [1]: 0.094 µM
MIC [2]: 3 µM

SMILES: CCc1nc(-c2ccc(CC(C)C)cc2)ncc1C(=O)N[C@@H](CCN)C(=O)N(C)[C@@H]1C(=O)N[C@@H](C)C(=O)N[C@H](C(=O)NCC#N)Cc2ccc(OCCN)c(c2)-c2cc1ccc2OCCN (racemic) [Compound 417, rac-(8S,11S,14S)-3,18-bis(2-aminoethoxy)-N-(cyanomethyl)-11-methyl-14-[methyl-[rac-(2S)-4-amino-2-[[4-ethyl-2-(4-isobutylphenyl)pyrimidine-5-carbonyl]amino]butanoyl]amino]-10,13-dioxo-9,12-diazatricyclo[13.3.1.12,6]icosa-1(18),2(20),3,5,15(19),16-hexaene-8-carboxamide]
MIC [1]: 0.0062 µM
MIC [2]: 0.13 µM

SMILES: C[C@@H]1NC(=O)[C@@H](N(C)C(=O)[C@H](CCN)NC(=O)c2cnc(-c3ccc(C(C)(C)C)cc3)nc2O)c2ccc(OCCN)c(c2)-c2cc(ccc2OCCN)C[C@@H](C(=O)NCC#N)NC1=O (racemic) [Compound 419, rac-(8S,11S,14S)-3,18-bis(2-aminoethoxy)-N-(cyanomethyl)-11-methyl-14-[methyl-[rac-(2S)-4-amino-2-[[2-(4-tert-butylphenyl)-4-hydroxy-pyrimidine-5-carbonyl]amino]butanoyl]amino]-10,13-dioxo-9,12-diazatricyclo[13.3.1.12,6]icosa-1(18),2(20),3,5,15(19),16-hexaene-8-carboxamide]
MIC [1]: 0.063 µM
MIC [2]: 8 µM

SMILES: Cc1nc(-c2ccc(CC(C)C)cc2)ccc1C(=O)N[C@@H](CCN)C(=O)N(C)[C@@H]1C(=O)N[C@@H](C)C(=O)N[C@H](C(=O)NCC#N)Cc2ccc(O)c(c2)-c2cc1ccc2O (racemic) [Compound 430, rac-(8S,11S,14S)-N-(cyanomethyl)-3,18-dihydroxy-11-methyl-14-[methyl-[rac-(2S)-4-amino-2-[[6-(4-isobutylphenyl)-2-methyl-pyridine-3-carbonyl]amino]butanoyl]amino]-10,13-dioxo-9,12-diazatricyclo[13.3.1.12,6]icosa-1(18),2(20),3,5,15(19),16-hexaene-8-carboxamide]
MIC [1]: 0.15 µM
MIC [2]: 4.7 µM

SMILES: Cc1nc(-c2ccc(C(C)(C)C)cc2)ncc1C(=O)N[C@@H](CCN)C(=O)N(C)[C@@H]1C(=O)N[C@@H](C)C(=O)N[C@H](C(=O)NCC#N)Cc2ccc(O)c(c2)-c2cc1ccc2O (racemic) [Compound 431, rac-(8S,11S,14S)-N-(cyanomethyl)-3,18-dihydroxy-11-methyl-14-[methyl-[rac-(2S)-4-amino-2-[[2-(4-tert-butylphenyl)-4-methyl-pyrimidine-5-carbonyl]amino]butanoyl]amino]-10,13-dioxo-9,12-diazatricyclo[13.3.1.12,6]icosa-1(18),2(20),3,5,15(19),16-hexaene-8-carboxamide]
MIC [1]: 0.18 µM
MIC [2]: 3.9 µM

Reference: patent publication US20260274892A1, “MACROCYCLIC BROAD SPECTRUM ANTIBIOTICS” (RQx Pharmaceuticals, Inc., priority 2017, published 2026)
